We go through 3 compounds from patent publication US20230130831A1, “METHODS FOR DETECTING AND TREATING JOINT DISEASE” (Washington University, priority 2021, published 2023).

The subject of data set [1] is K/BxN (F1) mice with spontaneous arthritis. In words: Whole-body near-infrared fluorescence imaging in K/BxN spontaneous arthritis mice. The procedure: The K/BxN mice with spontaneous arthritis (F1) were maintained in the laboratory. To establish serum transfer arthritis (STA), male 6-8 weeks old C57BL/6J mice were injected intraperitoneally with 150-175 μL of serum derived from F1 mice (8-9 weeks old). Day 0 denoted induction of serum transfer/disease. Clinical manifestation of arthritis in each paw was assessed daily on a scale of 0-3 with 0=no swelling or erythema, 1=slight swelling or erythema, 2=moderate erythema and swelling in multiple digits or entire paw, and 3=pronounced erythema and swelling of an entire paw, with a maximum score of 12 per mouse. The ankle thickness of two hind paws was measured using calipers. Animals were monitored for distress during arthritis induction, including their ability to move around the cage and access food/water.
In the K/BxN (F1) mice with spontaneous arthritis, inflammation occurs progressively in the paws, ankle, and knee joints leading to measurable local erythema and swelling. F1 mice with severe arthritis (9-10 weeks old) were injected intravenously with LS301 and imaged 18 h post-injection for near-infrared fluorescence using the Pearl Small Animal Imaging System.
Arthritic or control (non-diseased) mice were injected intravenously with 6 nmol LS301. […] Images shown represented at least two independent experiments and were taken at 18 h post-injection with mice in dorsal orientation.
Mice were injected intravenously with 6 nmol LS301. […] Images shown were taken at 18 h post-injection with mice in dorsal orientation. (A) Early stage RA (3-4 week old K/Bxn mice). (B) Intermediate stage RA ([…] K/Bxn mice). (C) Late-stage RA (9-10 week old K/Bxn mice). (D) Normal (control) C57BL/6J mice. (E) K/Bxn mice (3-4 weeks old) were injected with cypate dye (control) instead of LS301.
K/BxN mice (9-10 wk. old) were injected intravenously with 6 nmol LS301.

Data set [2] deals with Raw 264.7 macrophage cells. As to the kind of experiment: In-vitro anti-inflammatory effect: LPS-induced cytokines by cytokine bead array. To be noted: combined with near-infrared (780 nm) laser irradiation. It is filed as cell-based. The procedure:
MTX alone and controls. Raw 264.7 macrophage cells were treated with methotrexate (MTX), LS301-MTX, LS301 alone, or LS301 combined with near-infrared (780 nm) laser irradiation. Levels of inflammation-associated (LPS-induced) cytokines, including IL-6 and IL-10, were measured by cytokine bead array.

Data set [3] relates to C57BL/6 mice with induced arthritis (K/BxN serum transfer). In words: Serum transfer arthritis: clinical paw scores and ankle thickness after treatment. It is filed as in vivo, mouse.
Experimental: To establish serum transfer arthritis (STA), male 6-8 weeks old C57BL/6J mice were injected intraperitoneally with 150-175 μL of serum derived from F1 mice (8-9 weeks old). Day 0 denoted induction of serum transfer/disease. Clinical manifestation of arthritis in each paw was assessed daily on a scale of 0-3 with 0=no swelling or erythema, 1=slight swelling or erythema, 2=moderate erythema and swelling in multiple digits or entire paw, and 3=pronounced erythema and swelling of an entire paw, with a maximum score of 12 per mouse. The ankle thickness of two hind paws was measured using calipers. Animals were monitored for distress during arthritis induction, including their ability to move around the cage and access food/water. Experiments were blinded, where the technician responsible for clinical assessment of paw score and ankle measurements was blinded to treatment groups. […] Clinical paw scores and ankle measurements were obtained daily. […] Mice received intraperitoneal DEX (10 mg/kg/dose) daily over 6 days. Clinical paw scores and ankle measurements were obtained daily. […] C57BL/6 mice with induced arthritis (K/Bxn serum transfer) were imaged with 6 nmol intravenous LS301 at day 4 post-disease induction. […] Individual limbs of the mice were scored for paw edema and measured for ankle thickness by calipers.
For data set [4], the system named is C57BL/6J mice with serum transfer arthritis. To be noted: mouse, in vivo.
Experimental: Animals were shaved. Excess hair was removed using commercially available hair removal cream. Mice were anesthetized with isoflurane for injection and imaging procedures. LS301 stock (or LS301-methotrexate or LS301-methylprednisolone derivative stock) in dimethyl sulfoxide solution was diluted in phosphate-buffered saline to a final concentration of 60 μM and injected via tail vein into mice. In-vivo near-infrared fluorescence using 785 nm excitation and 820 nm emission filters was assessed pre-injection, post-injection, and/or at indicated time points post-injection with a Pearl Small Animal Imaging System (LICOR Biotechnology, Lincoln, Nebr.). Regions of interest (ROIs) for fluorescence quantitation were drawn and analyzed using the Pearl Small Animal Imaging System software.
C57BL/6J mice with serum arthritis (days 5-6 post serum transfer) (left) or control C57BL/6J mice (right) were injected intravenously with 6 nmol LS301. […] Near-infrared fluorescence images were taken on the Pearl animal imaging system with λ=820 nm. […] ROIs were drawn around each organ/limb of interest and quantitated using the Pearl animal imaging system software.
C57BL/6 mice with induced arthritis (K/Bxn serum transfer, days 5-6 post serum transfer) were injected subcutaneously (flank) with 6 nmol LS301. […] Near-infrared fluorescence images were taken on Pearl Imaging System with λ=800 nm.
In data set [5] the target is pANXA2 (Homo sapiens, UniProt P07355). The conditions noted are these: previously found; cited from earlier work.

Structures are written as SMILES. Where a SMILES comes first, the peptide text is derived from it. Bridges are numbered along the chain shown (N, C = ends). [ ]: non-standard residue; d: D form. The star is where a group is joined. X1 = CC1(C)C(/C=C/C=C/C=C/C=C2/N(CCC(=O)*)c3ccc4ccccc4c3C2(C)C)=[N+](CCC(=O)[O-])c2ccc3ccccc3c21

pANXA2, sequence (P07355 whole entry): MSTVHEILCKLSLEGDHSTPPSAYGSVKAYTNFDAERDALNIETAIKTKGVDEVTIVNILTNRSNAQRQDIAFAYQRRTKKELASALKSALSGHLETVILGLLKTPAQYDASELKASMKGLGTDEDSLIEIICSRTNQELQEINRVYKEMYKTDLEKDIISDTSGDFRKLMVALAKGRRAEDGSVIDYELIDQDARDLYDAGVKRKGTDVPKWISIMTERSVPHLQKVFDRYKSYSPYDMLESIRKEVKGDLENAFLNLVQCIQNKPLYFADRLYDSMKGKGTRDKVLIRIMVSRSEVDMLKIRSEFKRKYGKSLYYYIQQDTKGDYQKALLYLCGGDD

Take `CC1(C)C(/C=C/C=C/C=C/C=C2/N(CCC(=O)N[C@@H]3CSSC[C@@H](C(=O)N[C@@H](CCCCN)C(=O)O)NC(=O)[C@@H]4CCCN4C(=O)[C@H](CO)NC(=O)[C@H](CC(=O)O)NC(=O)[C@H](CCCNC(=N)N)NC(=O)CNC3=O)c3ccc4ccccc4c3C2(C)C)=[N+](CCC(=O)[O-])c2ccc3ccccc3c21` [LS301, cypate-cyclic (DCys-Gly-Arg-Asp-Ser-Pro-Cys)-Lys-OH] (X1-[dC]GRDSPCK-OH; disulfide 1-7): in data set [1] (mouse, in vivo, iv), the “clearance from the body” value came out at 2.5 days and the “time point of contrast post-injection” value is around 18 h. Also, the “inflammatory state of macrophages (LPS-induced cytokines incl. IL-6, IL-10)” value in data set [2] is given as “suppress the inflammatory state of macrophages”. The “effect on disease progression” value in data set [3] (imaging dose (6 nmol), LS301 alone) was “did not significantly affect disease progression”. Moreover, the “kidney signal, arthritic mice vs controls” value in data set [4] is recorded as “possible nonsignificant trend toward increased kidney signal in arthritic mice when compared to controls”. For the same compound, the “affinity for pANXA2” value in data set [5] was “high affinity”.
On to `CC1(C)C(/C=C/C=C/C=C/C=C2/N(CCC(=O)O)c3ccc4ccccc4c3C2(C)C)=[N+](CCC(=O)[O-])c2ccc3ccccc3c21` [cypate, reference compound], for which the “accumulation in extremities / regions of arthritic joint disease” value in data set [1] (K/BxN F1 arthritic mice, i.v., 18 h) was “No accumulation was found in extremities”.
Regarding `CN(Cc1cnc2nc(N)nc(N)c2n1)c1ccc(C(=O)N[C@@H](CCC(=O)O)C(=O)O)cc1` [methotrexate, reference compound], the clinical scores result in data set [3] (three doses i.p. 2 mg/kg/dose over seven days, day 23 post-treatment initiation) is “clinical scores of mice had significantly decreased”.
